One experiment concerns the target PDGFR-β (Homo sapiens (Human), UniProt P09619). Briefly: PDGFR-β tyrosine kinase inhibitory action (HTRF KinEASE-TK). The settings on record: PDGFR-β enzyme 1 ng/μL, 30° C. for 30 minutes; read-out: PDGF-β IC50. Type of experiment: biochemical. As for the experimental part:
(§1) 1. Preparation of Test Substance
This DMSO solution was diluted by 8 times with an assay buffer 1 (50 mM HEPES (pH 7.0), 0.02% NaN3, 0.01% Bovine Serum Albumin, 0.1 mM orthovanadate, 1 mM Dithiothreitol, 5 mM MgCl2, and 1 mM MnCl2) and further diluted by 5 times with an assay buffer 2 (50 mM HEPES (pH 7.0), 0.02% NaN3, 0.01% Bovine Serum Albumin, 0.1 mM orthovanadate, 1 mM Dithiothreitol, 5 mM MgCl2, 1 mM MnCl2, and 40 nM Supplemented Enzymatic Buffer (cisbio)).
2. Measurement of PDGFR-β Tyrosine Kinase Inhibitory Action
For the measurement, the HTRF KinEASE-TK kit from Cisbio Bioassays SAS was used. To a 384 well plate, the test substance solution was added at 4 μL each, then 2 μL of a PDGFR-β enzyme solution (final concentration of 1 ng/μL, Carna Biosciences, Inc.) and 4 μL of a substrate solution obtained by adding 0.6 μM ATP to TK substrate-3-biotin (cisbio) were added, and the solution was allowed to react at 30° C. for 30 minutes at a final concentration of the test substance being 0.01 to 10,000 nM.
Thereafter, 10 μL of a detection solution (cisbio) was added to each well and allowed to react at 30° C. for 1 hour. The fluorescence intensity was measured with a microplate reader (Spectra Max M5, Molecular device).
(§2) 3. Analysis of Measurement Results
In general terms: In TR-FRET formats the signal depends on donor and acceptor labels being close together.

The subject of experiment [1] is pulmonary arterial smooth muscle cells. Briefly: Suppression of proliferation of pulmonary arterial smooth muscle cells (PDGF-BB stimulation, BrdU). Type of experiment: cell-based. The conditions noted are these: PASMC, 24 h; healthy human derived pulmonary arterial smooth muscle cells; human PDGF-BB 10 ng/mL stimulation; BrdU uptake after 1 day; test substance final concentration 3 to 10,000 nM; read-out: Human normal PASMC proliferation suppression (PDGF stimulation_IC50). The method, then:
as §1
Furthermore, it was diluted by 50 times with distilled water.
2. Measurement of Suppression Action Against Proliferation of Pulmonary Arterial Smooth Muscle Cells
The day after healthy human derived pulmonary arterial smooth muscle cells were seeded onto a 96 well plate using a smooth muscle cell proliferation medium, the proliferation medium was replaced with a 0.1% FBS medium, and the cells were cultured for an additional day. A test substance solution was diluted by 10 times with a medium containing BrdU and human PDGF-BB (final concentration of 10 ng/mL, Sigma-Aldrich) and added to cells in equal amounts so as to reach a final concentration of 3 to 10,000 nM. Also, to the human PDGF-BB negative control, BrdU and 0.1% DMSO solution were added. After culturing for 1 day, the amount of BrdU taken up by the proliferating cells was measured using an anti-BrdU antibody.
as §2

20 compounds from patent US12509424B2, “Compound and composition as PDGF receptor kinase inhibitor” (NIPPON SHINYAKU CO., LTD., priority 2019, dated 2025) can be followed below.

Chain of PDGFR-β (P09619 33-1106): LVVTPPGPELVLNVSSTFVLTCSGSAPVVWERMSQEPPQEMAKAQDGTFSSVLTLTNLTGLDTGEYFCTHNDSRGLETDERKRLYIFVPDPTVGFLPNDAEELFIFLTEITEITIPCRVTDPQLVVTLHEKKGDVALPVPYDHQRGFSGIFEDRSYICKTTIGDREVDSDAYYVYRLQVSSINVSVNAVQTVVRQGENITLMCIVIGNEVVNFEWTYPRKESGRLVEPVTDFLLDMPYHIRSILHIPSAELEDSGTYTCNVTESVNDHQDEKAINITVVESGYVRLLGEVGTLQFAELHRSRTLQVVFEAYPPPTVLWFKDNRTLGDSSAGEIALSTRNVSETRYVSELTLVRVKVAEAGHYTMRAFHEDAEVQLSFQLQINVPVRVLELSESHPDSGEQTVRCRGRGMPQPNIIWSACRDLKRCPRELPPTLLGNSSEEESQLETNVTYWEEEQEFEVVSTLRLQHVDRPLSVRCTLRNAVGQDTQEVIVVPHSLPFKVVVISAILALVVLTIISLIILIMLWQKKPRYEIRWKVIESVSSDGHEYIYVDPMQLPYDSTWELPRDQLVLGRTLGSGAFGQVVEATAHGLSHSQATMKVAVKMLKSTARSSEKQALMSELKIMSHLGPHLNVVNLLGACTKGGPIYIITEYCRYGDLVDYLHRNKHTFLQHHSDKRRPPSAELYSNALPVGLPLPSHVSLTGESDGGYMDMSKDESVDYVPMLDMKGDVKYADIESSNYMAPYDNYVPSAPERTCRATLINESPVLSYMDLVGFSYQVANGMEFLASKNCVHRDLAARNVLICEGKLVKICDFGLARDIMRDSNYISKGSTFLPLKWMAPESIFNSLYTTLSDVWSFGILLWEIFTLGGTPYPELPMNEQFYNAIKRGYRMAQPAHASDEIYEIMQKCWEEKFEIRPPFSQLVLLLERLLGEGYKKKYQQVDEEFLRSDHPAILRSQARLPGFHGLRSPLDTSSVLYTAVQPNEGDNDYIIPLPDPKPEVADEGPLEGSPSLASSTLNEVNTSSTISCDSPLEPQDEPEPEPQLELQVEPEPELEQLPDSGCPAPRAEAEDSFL

For `Cc1ccc(C(=O)N[C@H]2CCCC[C@@H]2O)cc1/C=C(\F)c1cncc(CN2CCN(C)CC2)c1` [Example 181, 3-[(Z)-2-fluoro-2-{5-[(4-methylpiperazin-1-yl)methyl]pyridin-3-yl}ethenyl]-N-[(1S,2S)-2-hydroxycyclohexyl]-4-methylbenzamide], the IC50 on PDGFR-β turned out to be 100 nM; in experiment [1], 500 nM.

Consider `O=C(N[C@H]1CCCC[C@@H]1O)c1ccc(F)c(/C=C(\F)c2cncc(-c3ncccn3)c2)c1` [Example 178, 4-fluoro-3-{(Z)-2-fluoro-2-[5-(pyrimidin-2-yl)pyridin-3-yl]ethenyl}-N-[(1S,2S)-2-hydroxycyclohexyl]benzamide], for which the IC50 on PDGFR-β is 26 nM; in experiment [1], 44 nM.

For the compound `Cc1ccc(C(=O)N[C@H]2CCCC[C@@H]2O)cc1NC(=O)c1cncc(OCC2(C)CC2)c1` [Example 53, N-(5-{[(1S,2S)-2-hydroxycyclohexyl]carbamoyl}-2-methylphenyl)-5-[(1-methylcyclopropyl)methoxy]pyridine-3-carboxamide], the IC50 on PDGFR-β was determined as 12 nM; in experiment [1], 71 nM.

In the case of `Cc1ccc(C(=O)N[C@H]2CCCC[C@@H]2O)cc1/C=C(\F)c1cncc(CN2CCOCC2)c1` [Example 182, 3-[(Z)-2-fluoro-2-{5-[(morpholin-4-yl)methyl]pyridin-3-yl}ethenyl]-N-[(1S,2S)-2-hydroxycyclohexyl]-4-methylbenzamide], the values for the IC50 (on PDGFR-β; in experiment [1]) were 33 nM and 190 nM, respectively.

Regarding `Cc1ncc(C(=O)N[C@H]2CCCC[C@@H]2O)cc1/C=C(\F)c1cncc(N2CCOCC2)c1` [Example 188, 5-{(Z)-2-fluoro-2-[5-(morpholin-4-yl)pyridin-3-yl]ethenyl}-N-[(1S,2S)-2-hydroxycyclohexyl]-6-methylpyridine-3-carboxamide], the IC50 on PDGFR-β was 68 nM; in experiment [1] it was 60 nM.

For `CN1CCN(Cc2cncc(/C(F)=C/c3cc(C(=O)N[C@H]4CCCC[C@@H]4O)ccc3F)c2)CC1` [Example 186, 4-fluoro-3-[(Z)-2-fluoro-2-{5-[(4-methylpiperazin-1-yl)methyl]pyridin-3-yl}ethenyl]-N-[(1S,2S)-2-hydroxycyclohexyl]benzamide], the IC50 was 150 nM at PDGFR-β and 220 nM in experiment [1].

For `Cc1ccc(C(=O)N[C@H]2CCCC[C@@H]2O)cc1NC(=O)c1cncc(Oc2ccccn2)c1` [Example 51, N-(5-{[(1S,2S)-2-hydroxycyclohexyl]carbamoyl}-2-methylphenyl)-5-[(pyridin-2-yl)oxy]pyridine-3-carboxamide], the results for the IC50 (at PDGFR-β; in experiment [1]) were 61 nM and 180 nM, respectively.

For `Cc1ccc(C(=O)N[C@H]2CCCC[C@@H]2O)cc1NCc1cnc2c(c1)OCCN2` [Example 144, 3-{[(3,4-dihydro-2H-pyrido[3,2-b][1,4]oxazin-7-yl)methyl]amino}-N-[(1S,2S)-2-hydroxycyclohexyl]-4-methylbenzamide], the IC50 at PDGFR-β came out at 65 nM; in experiment [1], 39 nM.

With `Cc1ccc(C(=O)N[C@H]2CCCC[C@@H]2O)cc1NCc1ccc(NC(=O)C2CCOCC2)nc1` [Example 137, N-{5-[(5-{[(1S,2S)-2-hydroxycyclohexyl]carbamoyl}-2-methylanilino)methyl]pyridin-2-yl}oxane-4-carboxamide], the IC50 is 41 nM at PDGFR-β and 60 nM in experiment [1].

For the compound `Cc1ccc(C(=O)N[C@H]2CCCC[C@@H]2O)cc1NCc1ccc(NC2CCOCC2)nc1` [Example 125, N-[(1S,2S)-2-hydroxycyclohexyl]-4-methyl-3-[({6-[(oxan-4-yl)amino]pyridin-3-yl}methyl)amino]benzamide], the IC50 at PDGFR-β worked out at 130 nM; in experiment [1] it was 30 nM.

Turning to `Cc1ccc(C(=O)N[C@H]2CCCC[C@@H]2O)cc1NC(=O)c1cncc(OCC2CC(F)(F)C2)c1` [Example 54, 5-[(3,3-difluorocyclobutyl)methoxy]-N-(5-{[(1S,2S)-2-hydroxycyclohexyl]carbamoyl}-2-methylphenyl)pyridine-3-carboxamide], the IC50 at PDGFR-β stood at 40 nM; in experiment [1], 340 nM.

`O=C(N[C@H]1CCCC[C@@H]1O)c1ccc(F)c(/C=C(\F)c2cnc(NC3CC3)nc2)c1` [Example 203, 3-{(Z)-2-[2-(cyclopropylamino)pyrimidin-5-yl]-2-fluoroethenyl}-4-fluoro-N-[(1S,2S)-2-hydroxycyclohexyl]benzamide]: the figures for the IC50 (on PDGFR-β; in experiment [1]) were 61 nM and 200 nM, respectively.

Turning to `Nc1ccc(/C(F)=C/c2cc(C(=O)N[C@H]3CCCC[C@@H]3O)ccc2F)cn1` [Example 191, 3-[(Z)-2-(6-aminopyridin-3-yl)-2-fluoroethenyl]-4-fluoro-N-[(1S,2S)-2-hydroxycyclohexyl]benzamide], the IC50 on PDGFR-β stood at 35 nM; in experiment [1], 29 nM.

For `CCN1CCN(Cc2cncc(/C(F)=C/c3cc(C(=O)N[C@H]4CCCC[C@@H]4O)ccc3C)c2)CC1` [Example 194, 3-[(Z)-2-{5-[(4-ethylpiperazin-1-yl)methyl]pyridin-3-yl}-2-fluoroethenyl]-N-[(1S,2S)-2-hydroxycyclohexyl]-4-methylbenzamide], the figures for the IC50 (at PDGFR-β; in experiment [1]) were 35 nM and 74 nM, respectively.

Consider `Cc1ccc(C(=O)N[C@H]2CCCC[C@@H]2O)cc1NCc1ccc(NC(C)C)nc1` [Example 134, N-[(1S,2S)-2-hydroxycyclohexyl]-4-methyl-3-[({6-[(propan-2-yl)amino]pyridin-3-yl}methyl)amino]benzamide], for which the values for the IC50 (at PDGFR-β; in experiment [1]) were 170 nM and 60 nM, respectively.

On to `Cc1ccc(C(=O)N[C@H]2CCCC[C@@H]2O)cc1/C=C(\F)c1cnc2cccnn12` [Example 179, 3-[(Z)-2-fluoro-2-(imidazo[1,2-b]pyridazin-3-yl)ethenyl]-N-[(1S,2S)-2-hydroxycyclohexyl]-4-methylbenzamide], for which the IC50 on PDGFR-β stood at 5.9 nM; in experiment [1] it was 20 nM.

For the compound `Cc1ccc(C(=O)N[C@H]2CCCC[C@@H]2O)cc1/C=C(\F)c1ccc(NCC2CC2)nc1` [Example 183, 3-[(Z)-2-{6-[(cyclopropylmethyl)amino]pyridin-3-yl}-2-fluoroethenyl]-N-[(1S,2S)-2-hydroxycyclohexyl]-4-methylbenzamide], the IC50 was determined as 30 nM on PDGFR-β and 24 nM in experiment [1].

Take `Cc1ccc(C(=O)N[C@H]2CCCC[C@@H]2O)cc1NCc1cncc(-c2cn3ccnc3cn2)c1` [Example 111, N-[(1S,2S)-2-hydroxycyclohexyl]-3-({[5-(imidazo[1,2-a]pyrazin-6-yl)pyridin-3-yl]methyl}amino)-4-methylbenzamide]: the IC50 at PDGFR-β amounted to 150 nM; in experiment [1], 380 nM.

With `COC(=O)Nc1ccc(CNc2cc(C(=O)N[C@H]3CCCC[C@@H]3O)ccc2C)cn1` [Example 124, methyl {5-[(5-{[(1S,2S)-2-hydroxycyclohexyl]carbamoyl}-2-methylanilino)methyl]pyridin-2-yl}carbamate], the IC50 came to 22 nM on PDGFR-β and 25 nM in experiment [1].

Consider `CCOc1cncc(C(=O)Nc2cc(C(=O)N[C@H]3CCCC[C@@H]3O)ccc2C)c1` [Example 50, 5-ethoxy-N-(5-{[(1S,2S)-2-hydroxycyclohexyl]carbamoyl}-2-methylphenyl)pyridine-3-carboxamide], for which the IC50 came to 61 nM at PDGFR-β and 270 nM in experiment [1].
